According to PMC8602723, “Comparative assessment of antimicrobial, antiradical and cytotoxic activities of cannabidiol and its propyl analogue cannabidivarin” (Scientific Reports, 2021):

What was measured:
A549 cells [1] = assay: MTT assay (mitochondrial metabolism); assay type: cell-based; details: Homo sapiens, read-out: IC50 MTT assay
Text: (§1) MTT assay is the most commonly used method for high-throughput identification of the antiproliferative effects of compounds on cultured cells and is indirectly correlated with mitochondria-dependent apoptosis progression[59]–[61]. The production of reducing equivalents such as NADH in metabolically active cells is an indicator of “cell redox activity”, indirectly reflecting the number of viable cells[60],[61] and the mitochondrial metabolic rate in cells[62],[63].
(§2) A549, Caco-2, HepG2 and TelCOFS02MA cells (1 × 10^4 cells/well), and MDA-MB-231 cells (0.5 × 10^4 cells/well) were seeded in 100 µL of fresh medium into 96-well plates (TC-Plate 96 wells, Sarstedt, Verona, Italy) in quadruplicate for 24 h at 37 °C in a humidified atmosphere of 95% air plus 5% CO2. Then, the medium was removed and replaced with 200 µL of media with different concentrations of CBD (5–80 µM, dilution factor [DF] equal to 2) and CBDV (5.5–88 µM, DF = 2) chosen on the basis of range-finding tests (0.5, 5, and 50 mg/L). We chose 1.56–25 mg/L to be tested and, to make easier the comparison between the two cannabinoids activities, the concentrations were reported in [μM]. In all experiments, negative controls (wells containing cells exposed only to the medium) and solvent controls (wells containing cells exposed to 2.5% methanol) were included. The plates were incubated at 37 °C for three exposure times: 24, 48 and 72 h (different plates were prepared for each specific time point). Then, MTT solution (5 mg/mL) was added to each well, and the plates were re-incubated for 4 h at 37 °C. The culture medium was removed, and 2-propanol was used to dissolve formazan crystals. The absorbance of formazan was measured spectrophotometrically at 590 nm using an automated microplate reader (Synergy H1, Biotek, Winooski, USA). The results are reported as the percentages of cells with inhibited proliferation, as determined by the link between the inhibition of mitochondrial metabolic activity and proliferation. The results were calculated with the following formula:1 IC%=1-OD590sample/OD590negativecontrol·100
(§3) Furthermore, IC50 values (concentrations of the sample used to obtain an inhibition of 50% of cell growth/metabolic activity) were calculated.
(§4) All results from five independent experiments are expressed as the IC50 or EC50 as determined by analysis with Prism 5 software (GraphPad Inc., San Diego, CA, USA) and nonlinear regression (log agonist vs. normalized response-variable slope) with a 95% confidence range. Lowest observed adverse effect concentrations (LOAECs) were calculated by one-way ANOVA and Dunnett’s comparison test. Differences compared to the controls were considered significant as follows: *p < 0.05, **p < 0.001 and ***p < 0.0001.

Hep G2 cells [2] = assay: MTT assay (mitochondrial metabolism); assay type: cell-based; details: Homo sapiens, read-out: IC50 MTT assay
Text: as §1, §2, §3, §4

Caco-2 cells [3] = assay: LDH assay (plasma membrane damage); assay type: cell-based; details: Homo sapiens, read-out: IC50 LDH assay
Experimental: (§5) LDH assay is a high-throughput method based on the release of the LDH cytoplasmic enzyme from the cytosol into the extracellular space when the plasma membrane is damaged[29],[30]. Plasma membrane damage related to the amount of lysed cells was monitored by LDH assay, and the results were used for indirectly detecting the necrosis correlated to the leakage of the cytosolic enzyme due the loss of membrane permeability control[29],[30]. This assay was performed with the protocol described by Lehmann and colleagues.
(§6) Briefly, 1 × 10^4 A549 and Caco-2 cells and 2 × 10^4 HepG2, MDA-MB-231 and TelCOFS02MA cells were seeded in 100 µL of 1% FBS-fresh medium in each well of 96-well plates and incubated for 24 h at 37 °C with 95% humidity and 5% CO2. Then, the medium was removed and replaced with 100 µL of medium with different concentrations of CBD and CBDV, which were chosen on the basis of range-finding tests (as previously indicated). The plates were incubated at 37 °C for 72 h. In all experiments, the background control (wells with medium and without cells to obtain information about the LDH activity in the assay medium), low control (wells containing cells exposed only to the medium to determine spontaneous LDH release), high control (wells containing cells exposed to 2% Triton-X100 for 10 min before performing the assay to determine maximum LDH release), and solvent controls (2.5% methanol) were included. One hundred microlitres of supernatant was removed carefully from each well and transferred into corresponding wells in optically clear 96-well flat bottom microplates. One hundred microlitres of freshly prepared reaction mixture (Diaphorase (Catalyst)/NAD^+ /INT/sodium lactate) was added to each well and incubated for 30 min at 20 °C in darkness. Thus, NAD^+ was reduced to NADH/H^+ by the LDH-catalysed conversion of lactate to pyruvate. Then, the catalyst transferred H/H^+ from NADH/H^+ to the tetrazolium salt INT, which was reduced to formazan. To arrest the reaction, 50 µL/well of 1 N HCl was added. The spectrophotometric absorbance was determined at 492 nm. The absorbance of the background control wells was subtracted from all other values.
(§7) The results are reported as percentages of cytotoxicity, which is linked to the percentage of LDH released from damaged plasma membranes, calculated as follows:3 IC%=OD492sample-OD492lowcontrol/OD492highcontrol-OD492lowcontrol·100
(§8) IC50 values (concentrations of the sample to obtain 50% cytotoxicity) were calculated.
as §4

A549 cells [4] = assay: LDH assay (plasma membrane damage); assay type: cell-based; details: Homo sapiens, read-out: IC50 LDH assay
Experimental: as §5, §6, §7, §8, §4

MDA-MB-231 cells [5] = assay: LDH assay (plasma membrane damage); assay type: cell-based; details: Homo sapiens, read-out: IC50 LDH assay
Experimental: as §5, §6, §7, §8, §4

Hep G2 cells [6] = assay: LDH assay (plasma membrane damage); assay type: cell-based; details: Homo sapiens, read-out: IC50 LDH assay
Experimental: as §5, §6, §7, §8, §4

TelCOFS02MA cells [7] = assay: LDH assay (plasma membrane damage); assay type: cell-based, human; details: for IC50: Homo sapiens, read-out: IC50 LDH assay
Experimental: as §5, §6, §7, §8
All results from five independent experiments are expressed as the IC50 or EC50 as determined by analysis with Prism 5 software (GraphPad Inc., San Diego, CA, USA) and nonlinear regression (log agonist vs. normalized response-variable slope) with a 95% confidence range. […]

Caco-2 cells [8] = assay: MTT assay (mitochondrial metabolism); assay type: cell-based, human; details: for LOAEC MTT assay: Caco-2, same value after each exposure time (24, 48, 72 h); for IC50: Homo sapiens, read-out: IC50 MTT assay
Text: as §1, §2, §3, §4

MDA-MB-231 cells [9] = assay: MTT assay (mitochondrial metabolism); assay type: cell-based, human; details: for IC50: Homo sapiens, read-out: IC50 MTT assay
Text: as §1, §2, §3, §4

TelCOFS02MA cells [10] = assay: MTT assay (mitochondrial metabolism); assay type: cell-based, human; details: for IC50: Homo sapiens, read-out: IC50 MTT assay
Text: as §1, §2, §3, §4

[11] = A549, 72 h exposure, 95% confidence interval in brackets
[12] = HepG2, Hep G2, 72 h exposure, 95% confidence interval in brackets
[13] = Caco-2, 72 h exposure, 95% confidence interval in brackets
[14] = MDA-MB-231, 72 h exposure, 95% confidence interval in brackets
[15] = TelCOFS02MA, 72 h exposure, 95% confidence interval in brackets

Compound C=C(C)[C@@H]1CCC(C)=C[C@H]1c1c(O)cc(CCC)cc1O [CBDV, cannabidivarin] has an IC50 (A549 cells [1]; A549, 72 h) of 32.9 µM, an IC50 (Hep G2 cells [2]; HepG2, 72 h) of 19.7 µM and an IC50 (Caco-2 cells [3]; Caco-2, 72 h) of 29.1 µM. For the same compound, the IC50 (A549 cells [4]; A549, 72 h) was 26.3 µM, the IC50 (MDA-MB-231 cells [5]; MDA-MB-231, 72 h) was 33.8 µM and the IC50 (Hep G2 cells [6]; HepG2, 72 h) was 21.2 µM. For the same compound, the IC50 (TelCOFS02MA cells [7]; 72 h) was 152 µM, the “LOAEC LDH assay” value (TelCOFS02MA cells [7]; TelCOFS02MA, 72 h) was 88 µM and the “LOAEC MTT assay” value (Caco-2 cells [8]) was 44 µM. The IC50 (Caco-2 cells [8]; Caco-2, 72 h) was 46 µM, the IC50 (MDA-MB-231 cells [9]; MDA-MB-231, 72 h) was 38.1 µM and the “LOAEC MTT assay” value (MDA-MB-231 cells [9]; MDA-MB-231, 24 h) was 44 µM. The “LOAEC MTT assay” value (MDA-MB-231 cells [9]; MDA-MB-231, 48 h) was 22 µM, the IC50 (TelCOFS02MA cells [10]; 72 h) was 42.3 µM and the “LOAEC MTT assay” value (TelCOFS02MA cells [10]; TelCOFS02MA, 24 h) was 88 µM. The “LOAEC MTT assay” value (TelCOFS02MA cells [10]; TelCOFS02MA, 48 h) was 44 µM and the “LOAEC MTT assay” value (TelCOFS02MA cells [10]; TelCOFS02MA, 72 h) was 11 µM.
C=C(C)[C@@H]1CCC(C)=C[C@H]1c1c(O)cc(CCCCC)cc1O [CBD, Cannabidiol] showed an IC50 (A549 cells [1]; [11]) of 27.7 µM, an IC50 (Hep G2 cells [2]; [12]) of 15.8 µM and an IC50 (Caco-2 cells [3]; [13]) of 22.8 µM. For the same compound, the IC50 (A549 cells [4]; [11]) was 24 µM, the IC50 (MDA-MB-231 cells [5]; [14]) was 22.1 µM and the IC50 (Hep G2 cells [6]; [12]) was 18.1 µM. The IC50 (TelCOFS02MA cells [7]; [15]) was 118 µM, the “LOAEC LDH assay” value (TelCOFS02MA cells [7]; TelCOFS02MA, 72 h) was 80 µM and the “LOAEC MTT assay” value (Caco-2 cells [8]) was 20 µM. The IC50 (Caco-2 cells [8]; [13]) was 35.2 µM, the IC50 (MDA-MB-231 cells [9]; [14]) was 25.8 µM and the “LOAEC MTT assay” value (MDA-MB-231 cells [9]; MDA-MB-231, 24 h) was 20 µM. The “LOAEC MTT assay” value (MDA-MB-231 cells [9]; MDA-MB-231, 48 h) was 10 µM, the IC50 (TelCOFS02MA cells [10]; [15]) was 31.9 µM and the “LOAEC MTT assay” value (TelCOFS02MA cells [10]; TelCOFS02MA, same value for the entire treatment period (24, 48, 72 h)) was 20 µM.
